Activity calls are given as the source filed them. The calls are words filed in the database; no cut-off is given here.
Legend:
[1] = tested on: A549; assay: Antiproliferative activity against human A549 cells assessed as cell survival rate at 2.5 uM incubated for 48 hrs by CCK8 assay; format: functional; conditions: A549, 48 h, read-out: Survival
[2] = tested on: A549; assay: Inhibition of TGFbeta1-induced reduction in E-cadherin expression in human A549 cells at 15 and 20 uM pre-treated for 2 hrs before TGFbeta1 stimulation for 48 hrs by Western blot method; format: functional, cell-based
[3] = tested on: A549; assay: Inhibition of TGFbeta1-induced anoikis resistance in human A549 cells grown on poly-HEMA-coated tissue culture plates assessed reduction in PARP cleavage at 15 and 20 uM pre-treated for 2 hrs before TGFbeta1 stimulation for 48 hrs by Western blot method; format: functional, cell-based
[4] = tested on: A549; assay: Antiproliferative activity against human A549 cells assessed as inhibition of cell growth at 30 uM incubated for 48 hrs by CCK8 assay; format: functional, cell-based
[5] = tested on: A549; assay: Antiproliferative activity against human A549 cells assessed as cell survival rate at 10 uM incubated for 48 hrs by CCK8 assay; format: functional; conditions: A549, 48 h, read-out: Survival
[6] = tested on: A549; assay: Antiproliferative activity against human A549 cells assessed as cell survival rate at 20 uM incubated for 48 hrs by CCK8 assay; format: functional; conditions: A549, 48 h, read-out: Survival
[7] = tested on: A549; assay: Inhibition of TGFbeta1-induced cell invasion of human A549 cells at 15 and 20 uM incubated for 48 hrs by matrigel cell invasion assay; format: functional, cell-based
[8] = tested on: A549; assay: Inhibition of TGFbeta1-induced cell migration of human A549 cells at 15 and 20 uM incubated for 48 hrs by wound healing assay; format: functional, cell-based
[9] = molecular target: Mothers against decapentaplegic homolog 2 (Homo sapiens) (UniProt Q15796); assay: Inhibition of TGFbeta1-induced Smad2 phosphorylation in human A549 cells at 15 and 20 uM pre-treated for 2 hrs before TGFbeta1 stimulation for 48 hrs by Western blot method; format: cell-based
[10] = tested on: A549; assay: Antiproliferative activity against human A549 cells assessed as effect on cell proliferation at =< 30 uM incubated for 24 hrs by CCK8 assay; format: functional, cell-based
[11] = tested on: A549; assay: Inhibition of TGFbeta1-induced increase in Snail protein expression in human A549 cells at 15 and 20 uM pre-treated for 2 hrs before TGFbeta1 stimulation for 48 hrs by Western blot method; format: functional, cell-based
[12] = tested on: A549; assay: Inhibition of TGFbeta1-induced increase in vimentin expression in human A549 cells at 15 and 20 uM pre-treated for 2 hrs before TGFbeta1 stimulation for 48 hrs by Western blot method; format: functional, cell-based
[13] = tested on: A549; assay: Inhibition of TGFbeta1-induced epithelial-mesenchymal transition in human A549 cells assessed as suppression of mesenchymal phenotype at 15 and 20 uM pre-treated for 2 hrs before TGFbeta1 stimulation for 48 hrs; format: functional, cell-based
[14] = tested on: A549; assay: Inhibition of TGFbeta1-induced increase in Snail gene expression in human A549 cells at 15 and 20 uM pre-treated for 2 hrs before TGFbeta1 stimulation for 48 hrs by qRT-PCR method; format: functional, cell-based
[15] = tested on: A549; assay: Inhibition of TGFbeta1-induced reduction in E-cadherin expression in human A549 cells assessed as suppresion of mesenchymal phenotype at 15 and 20 uM pre-treated for 2 hrs before TGFbeta1 stimulation for 48 hrs by Western blot method; format: functional, cell-based
[16] = tested on: A549; assay: Antiproliferative activity against human A549 cells assessed as cell survival rate at 15 uM incubated for 48 hrs by CCK8 assay; format: functional; conditions: A549, 48 h, read-out: Survival
[17] = tested on: A549; assay: Inhibition of TGFbeta1-induced increase in N-cadherin expression in human A549 cells at 15 and 20 uM pre-treated for 2 hrs before TGFbeta1 stimulation for 48 hrs by Western blot method; format: functional, cell-based
[18] = tested on: A549; assay: Inhibition of TGFbeta1-induced anoikis resistance in human A549 cells grown on poly-HEMA-coated tissue culture plates assessed reduction in cell proliferation at 15 and 20 uM pre-treated for 2 hrs before TGFbeta1 stimulation for 48 hrs by SRB assay; format: functional, cell-based
[19] = tested on: A549; assay: Antiproliferative activity against human A549 cells assessed as cell survival rate at 5 uM incubated for 48 hrs by CCK8 assay; format: functional; conditions: A549, 48 h, read-out: Survival
[20] = tested on: A549; assay: Inhibition of TGFbeta1-induced anoikis resistance in human A549 cells grown on poly-HEMA-coated tissue culture plates at 15 and 20 uM pre-treated for 2 hrs before TGFbeta1 stimulation for 48 hrs; format: functional, cell-based

Mothers against decapentaplegic homolog 2 (Homo sapiens), sequence (Q15796 whole entry): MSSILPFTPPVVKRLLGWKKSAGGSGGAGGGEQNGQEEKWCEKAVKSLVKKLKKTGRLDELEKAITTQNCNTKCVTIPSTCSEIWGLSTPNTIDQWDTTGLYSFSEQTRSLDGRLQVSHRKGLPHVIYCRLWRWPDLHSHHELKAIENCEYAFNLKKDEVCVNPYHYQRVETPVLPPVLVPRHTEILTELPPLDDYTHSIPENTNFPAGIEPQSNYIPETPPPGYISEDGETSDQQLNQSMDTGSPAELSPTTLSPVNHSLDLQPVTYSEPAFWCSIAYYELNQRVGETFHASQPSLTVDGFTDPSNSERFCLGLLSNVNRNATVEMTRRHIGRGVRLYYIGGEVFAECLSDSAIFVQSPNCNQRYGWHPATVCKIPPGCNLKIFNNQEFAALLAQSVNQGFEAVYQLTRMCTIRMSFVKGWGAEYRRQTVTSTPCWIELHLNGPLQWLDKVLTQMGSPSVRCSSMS

Compound: O=C1O[C@H]2[C@@H]3OC(=O)c4cc(O)c(O)c(O)c4-c4c(cc(O)c(O)c4O)C(=O)OC[C@H]2O[C@@H](OC(=O)c2cc(O)c(O)c(O)c2)[C@@H]3OC(=O)c2cc(O)c(O)c3c2[C@@H]2C1=CC(=O)[C@](O)(O3)C2(O)O [GERANIIN]
- viability at 2.5 µM [1]: > 90%
- inhibition [2]: Active
- inhibition [3]: Active
- growth inhibition (GI) [4]: Active
- viability at 10 µM [5]: > 90%
- viability at 20 µM [6]: > 90%
- inhibition [7]: Active
- inhibition [8]: Dose-dependent effect
- inhibition [9]: Active
- Activity [10]: inactive
- inhibition [11]: Dose-dependent effect
- inhibition [12]: Active
- inhibition [13]: Active
- inhibition [14]: Dose-dependent effect
- inhibition [15]: Active
- viability at 15 µM [16]: > 90%
- inhibition [17]: Active
- inhibition [18]: Dose-dependent effect
- viability at 5 µM [19]: > 90%
- inhibition [20]: Active

Reference: ChEMBL document CHEMBL3603758, “Geraniin inhibits TGF-β1-induced epithelial-mesenchymal transition and suppresses A549 lung cancer migration, invasion and anoikis resistance” (2015)
